Data reported in ChEMBL document CHEMBL2449286, “Structure-activity data for a series of P-glycoprotein inhibitors (Supplementary Data to CHEMBL1142990)”.

Target: ATP-dependent translocase ABCB1 (Homo sapiens, UniProt P08183)
Sequence (P08183 whole entry): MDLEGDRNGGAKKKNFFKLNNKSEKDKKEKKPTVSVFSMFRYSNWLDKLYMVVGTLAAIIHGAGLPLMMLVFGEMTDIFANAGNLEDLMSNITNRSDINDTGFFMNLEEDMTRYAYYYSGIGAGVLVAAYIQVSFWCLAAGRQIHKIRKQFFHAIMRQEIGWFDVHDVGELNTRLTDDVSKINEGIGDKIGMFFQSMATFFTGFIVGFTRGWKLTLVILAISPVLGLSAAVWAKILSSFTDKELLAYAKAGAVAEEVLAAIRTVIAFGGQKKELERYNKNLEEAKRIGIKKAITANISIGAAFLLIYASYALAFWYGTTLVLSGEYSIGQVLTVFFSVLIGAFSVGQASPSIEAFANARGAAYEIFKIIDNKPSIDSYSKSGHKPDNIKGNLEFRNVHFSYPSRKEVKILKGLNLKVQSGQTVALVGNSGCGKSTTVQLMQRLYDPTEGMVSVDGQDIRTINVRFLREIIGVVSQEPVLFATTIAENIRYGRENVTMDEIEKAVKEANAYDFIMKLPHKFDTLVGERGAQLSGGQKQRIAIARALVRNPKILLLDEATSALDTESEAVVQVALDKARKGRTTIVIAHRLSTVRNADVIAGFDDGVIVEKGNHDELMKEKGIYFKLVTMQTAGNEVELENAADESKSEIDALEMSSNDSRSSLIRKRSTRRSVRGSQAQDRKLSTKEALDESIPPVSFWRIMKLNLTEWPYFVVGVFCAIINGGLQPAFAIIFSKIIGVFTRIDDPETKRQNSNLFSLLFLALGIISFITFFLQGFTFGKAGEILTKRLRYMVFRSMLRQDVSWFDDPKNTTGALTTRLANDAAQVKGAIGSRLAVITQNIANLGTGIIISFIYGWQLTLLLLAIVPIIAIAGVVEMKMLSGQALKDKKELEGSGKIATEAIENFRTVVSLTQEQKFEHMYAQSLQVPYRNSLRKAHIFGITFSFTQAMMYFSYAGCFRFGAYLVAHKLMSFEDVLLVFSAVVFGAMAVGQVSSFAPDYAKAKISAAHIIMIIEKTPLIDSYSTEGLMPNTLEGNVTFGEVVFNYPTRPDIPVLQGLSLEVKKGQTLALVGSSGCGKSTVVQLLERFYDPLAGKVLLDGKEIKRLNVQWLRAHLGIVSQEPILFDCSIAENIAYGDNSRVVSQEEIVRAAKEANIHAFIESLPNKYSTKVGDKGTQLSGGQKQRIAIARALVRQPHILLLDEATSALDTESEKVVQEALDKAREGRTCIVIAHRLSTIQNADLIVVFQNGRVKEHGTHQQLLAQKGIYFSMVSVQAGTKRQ

SMILES	EC50
O=C(CCc1ccccc1)c1ccccc1OC[C@H](O)CNC1CCCCC1	339 nM
O=C1c2c(cccc2OC[C@H](O)CN2CCCCC2)C[C@@H]1Cc1ccccc1	214 nM
CCCNC[C@@H](O)Cn1c(C)c(C(=O)CCc2ccccc2)c(=O)n1-c1ccccc1	6310 nM
Cc1nn(C)c(OC[C@H](O)CN(C(C)C)C(C)C)c1C(=O)c1ccccc1	1200 nM
O=C(CCc1cccc2ccccc12)c1ccc(OC[C@H](O)CN2CCN(c3ccc(F)cc3)CC2)cc1	550 nM
CC1(C)Oc2ccc(C#N)cc2[C@@H](NCc2ccccc2)[C@@H]1O	58900 nM
CO[C@H](CCc1ccccc1)c1ccccc1OC[C@H](O)CN(C(C)C)C(C)C	661 nM
O[C@@H](COc1ccccc1[C@@H](O)CCc1ccccc1)CN1CCCCC1	871 nM
Cc1ccccc1N1CCN(C[C@@H](O)COc2ccccc2C(=O)CCc2ccc(Cl)c(Cl)c2)CC1	38 nM
Cc1ccccc1N1CCN(CC(O)COc2cccc(C(=O)CCc3cccc4ccccc34)c2)CC1 (configuration not stated)	70.8 nM
O=C(CCc1ccccc1)c1ccccc1OC[C@H](O)CN1CCC(Cc2ccccc2)CC1	257 nM
CC(C)[C@H](NC[C@@H](O)COc1ccccc1C(=O)CCc1ccccc1)c1ccccc1	209 nM
CC(C)[C@@H]1N[C@H]2c3cc(C#N)ccc3OC(C)(C)[C@@H]2OC1=O	58900 nM
CCC(=O)c1ccccc1OC[C@H](O)CN1CCN(Cc2ccccc2)CC1	1450 nM
O=C(CCc1ccccc1)c1ccccc1OC[C@H](O)CN[C@@H](c1ccccc1)C1CCCCC1	145 nM
Cc1cccc(N2CCN(C[C@H]3CC(=O)c4ccccc4O3)CC2)c1C	2040 nM
O=C(CCc1ccccc1)c1ccc(OC[C@H](O)CN2CCCCC2)cc1	977 nM
CCOc1ccccc1NC(=O)C1=C(C)NC(=S)N[C@@H]1c1cccs1	8710 nM
O=C(CCc1ccccc1)c1ccccc1OC[C@H](O)CN1CCCCC1	603 nM
CCC(=O)c1ccc(OC[C@H](O)CN2CCN(c3cccc(C)c3C)CC2)cc1	1410 nM
CC(NC1c2cc(C#N)ccc2OC(C)(C)C1O)C(=O)OC(C)(C)C (configuration not stated)	29500 nM
CO[C@@H](CCc1ccccc1)c1ccccc1OC[C@H](O)CN1CCN(c2ccccc2C)CC1	36.3 nM

SMILES	EC50
Cc1c([C@H](O)c2ccccc2)c(=O)n(-c2ccccc2)n1C[C@H](O)CN(C(C)C)C(C)C	24000 nM
CO[C@H](CCc1ccccc1)c1ccccc1OC[C@H](O)CN1CCOCC1	1820 nM
Cc1c(C(=O)c2cccs2)c(=O)n(-c2ccccc2)n1C[C@H](O)CNC(C)(C)C	72400 nM
CC(=O)c1ccc(OC[C@H](O)CN2CCCCC2)cc1	49000 nM
Cc1cccc(N2CCN(C[C@@H](O)COc3ccc(C(=O)c4ccccc4)cc3)CC2)c1C	661 nM
CCCNC[C@@H](O)c1oc2ccccc2c1CC	11500 nM
CC(C)[C@@H](CO)N(C)[C@@H]1c2cc(C#N)ccc2OC(C)(C)[C@H]1O	5500 nM
Cc1ccc(OC[C@H](O)CN2CCCCC2)c(C(=O)CCc2ccccc2)c1	263 nM
O=C(CCc1cccc2ccccc12)c1ccccc1OC[C@H](O)CNCCC(c1ccccc1)c1ccccc1	724 nM
CC(C)[C@@H](C(=O)OC(C)(C)C)N(C)[C@H]1c2cc(C#N)ccc2OC(C)(C)[C@@H]1O	1350 nM
O=C(CCc1ccccc1)c1ccc(OC[C@H](O)CNCCC(c2ccccc2)c2ccccc2)cc1	501 nM
Cc1ccc(OC[C@H](O)CN2CCN(c3cccc(C)c3C)CC2)c(C(=O)CCc2ccccc2)c1	56.2 nM
CC(=O)O[C@@H](COc1ccccc1C(=O)CCc1ccccc1)CN1CCCCC1	339 nM
COc1ccccc1N1CCN([C@H]2c3ccccc3N(C(=O)c3ccc(C)cc3)[C@H](C)[C@@H]2O)CC1	3550 nM
COc1ccccc1N1CCN(C[C@@H](O)COc2ccccc2C(=O)CCc2ccccc2)CC1	229 nM
CCCNC[C@@H](O)COc1ccc(C)cc1C(=O)c1ccccc1	1200 nM
CC(C)[C@@H]1N[C@@H]2c3cc(C#N)ccc3OC(C)(C)[C@H]2OC1=O	15500 nM
O=C(CCc1ccccc1)c1cc(OCc2ccccc2)ccc1OC[C@H](O)CN1CCC(O)(c2ccccc2)CC1	85.1 nM
O=C(c1ccccc1)c1cccc(OC[C@H](O)CN2CCN(c3ccc(F)cc3)CC2)c1	575 nM
CCN(CC)C[C@@H](O)COc1ccccc1C(=O)c1ccccc1	2340 nM
CC(=O)c1ccc(OC[C@H](O)CN2CCOCC2)cc1	302000 nM

Further compounds by falling EC50, results first:

EC50	SMILES
67600 nM	CC(=O)c1ccccc1OC[C@H](O)CN1CCOCC1
61700 nM	CN1CCO[C@@H]2[C@@H]1c1cc(C#N)ccc1OC2(C)C
16600 nM	CC(C)[C@H]1C(=O)O[C@@H]2[C@H](c3cc(C#N)ccc3OC2(C)C)N1C
11700 nM	CC(=O)c1ccc(OC[C@H](O)CN2CCN(c3ccc(F)cc3)CC2)cc1
11200 nM	O=C1CCc2c(OC[C@H](O)CN3CCCCC3)cccc21
6460 nM	O=C(CCc1ccccc1)c1ccccc1OC[C@H](O)CNc1ccccc1
4680 nM	CC(C)[C@@H](N[C@@H]1c2cc(C#N)ccc2OC(C)(C)[C@H]1O)C(=O)OC(C)(C)C
3630 nM	CC(=O)c1cc(C)ccc1OC[C@H](O)CN1CCN(c2ccc(F)cc2)CC1
3160 nM	CC(=O)c1ccccc1OC[C@H](O)CN1CCC(O)(c2ccccc2)CC1
2450 nM	CN(C)C[C@@H](O)COc1ccccc1C(=O)CCc1ccccc1
1550 nM	COC(=O)c1ccc(NC[C@@H](O)COc2ccccc2C(=O)CCc2ccccc2)cc1
1000 nM	CC(C)[C@H](C(=O)OC(C)(C)C)N(C)[C@@H]1c2cc(C#N)ccc2OC(C)(C)[C@H]1O
813 nM	CCCNC[C@@H](O)COc1ccsc1C(=O)CCc1ccccc1
759 nM	CO[C@H](CCc1ccccc1)c1ccccc1OC[C@H](O)CNCCC(c1ccccc1)c1ccccc1
631 nM	O=C(CCc1cccc2ccccc12)c1cccc(OC[C@H](O)CN2CCOCC2)c1
288 nM	CC[C@H](C)c1ccc(N2C(=O)c3ccccc3N[C@H]2c2ccc(C(C)C)cc2)cc1
263 nM	O=C(CCc1cccc2ccccc12)c1ccc(OC[C@H](O)CN2CCCCC2)cc1
229 nM	Cc1cccc(N2CCN(C[C@@H](O)COc3ccc(C(=O)CCc4ccccc4)cc3)CC2)c1C
158 nM	O=C(CCc1cccc2ccccc12)c1cccc(OCC(O)CN2CCN(c3ccc(F)cc3)CC2)c1 (configuration not stated)
115 nM	O=C(CCc1ccccc1)c1cc(OCc2ccccc2)ccc1OC[C@H](O)CN1CCN(Cc2ccccc2)CC1
115 nM	CC(C)N(C[C@@H](O)COc1ccc(C(=O)CCc2cccc3ccccc23)cc1)C(C)C
83.2 nM	Cc1cccc(N2CCN(C[C@@H](O)COc3ccccc3[C@@H](O)CCc3ccccc3)CC2)c1C
79.4 nM	CO[C@@H](CCc1ccccc1)c1ccccc1OC[C@H](O)CN1CCN(Cc2ccccc2)CC1
18.2 nM	Cc1ccc(CCC(=O)c2ccccc2OC[C@H](O)CN2CCN(c3ccccc3C)CC2)cc1
